Test results taken from patent US6569864B1, “Pharmaceutical agents containing acyclovir, fusaric acid and derivatives thereof” (Novactyl, Inc., priority 2001, dated 2003).
≈ marks a conversion by molar mass, not a printed value. Read-outs that look alike come from different tables or passages of the source.

Key:
HSV-2 = experiment: plaque reduction assay, HSV-2 in Vero cells; assay type: cell-based; settings: for cell death observed under microscope: HSV-2 infected Vero cells
Experimental: (§1) Herpes simplex virus standard strains G (HSV-2) and F (HSV-1) were used in each Example. Virus input for a 6-well plate was 200 pfu/well. HSV susceptible cell line, Vero cells, were used in the virus yield reduction assay. The culture medium for Vero cells is 5% Minimum Essential Medium GIBCO/BRL (MEM) supplemented with 5% fetal bovine serum (200 U/ml penicillin and 200 μg/ml streptomycin).
(§2) To examine the efficacy of fusaric acid on HSV-1 and HSV-2, the susceptible cells were infected with either HSV-1 or HSV-2, then incubated with fusaric acid at concentrations of 0, 1, 10, 30, 60, and 100 μg/ml. The antiviral effect was then determined by plaque reduction assay.
(§3) Confluent cells were washed with PBS and infected with either HSV-1 or HSV-2 (200 pfu/well) for 1 hour at 37° C. The cells were tilled every 20 minutes. After viral inoculum was removed, infected cells were washed with PBS and overlaid with 0.5% methylcellulose in culture medium (equal volume of 1% methylcellulose mixed with 2 times culture medium) containing different doses of testing compounds. The cells were incubated at 37° C. for 2 days for HSV-2 infection and 3 days for HSV-1.
(§4) After plaque size was adequate, the cells were fixed with 20% formalin for 20 minutes and stained with 0.5% crystal violet for 20 minutes. The dye was removed by washing with tap water and left to dry in a fume hood. The plaques were then counted. The experiment was repeated.
(§5) Mean plaque counts in test wells were compared with mean plaque counts in wells not containing the compound (control wells). The antiviral effects of fusaric acid on HSV-1 and HSV-2 are summarized in Table 1 and the antiviral effect of fusaric acid on HSV as determined by plaque reduction assay is shown in FIG. 1.
(§6) EC90-100 (effective concentration giving 90-100% plaque reduction) was approximately 30 μg/ml for both HSV-1 and HSV-2. Control was calculated as the mean plaque count in the drug treated wells divided by the mean plaque count in the control wells. The concentrations giving a 50% reduction in the plaque count of the inoculum (EC50) was then calculated using computer software.
(§7) To examine the efficacy of the combination of fusaric acid and acyclovir on HSV-1 and HSV-2, the plaque reduction assay technique described in Example 1 was employed. The susceptible cells were infected with HSV-1 then incubated with a combination of fusaric acid at concentrations of 0, 1, 10, 30 and 60 μg/ml and […] acyclovir. Similarly, other susceptible cells were infected with HSV-2 then incubated with a combination of […] at concentrations of 0, 1, 10, 30, and 60 μg/ml and 6.1 μM acyclovir. A control was used in each instance, which comprised neither picolinic acid nor acyclovir.

HSV-1 = experiment: plaque reduction assay, HSV-1 in Vero cells; assay type: cell-based; settings: for cell death observed under microscope: HSV-1 infected Vero cells
Experimental: as §1, §2, §3, §4, §5, §6, §7

herpes labialis = settings: cited from earlier work
[1] = cytotoxicity by neutral red dye uptake assay; assay type: cell-based; settings: African green monkey
Experimental: (§8) The cytotoxic effects of picolinic acid and fusaric acid were examined on Vero cells using neutral red dye uptake assay. Confluent Vero cells were cultured in a medium containing various doses of picolinic acid for two days. The testing concentrations were 0, 10, 100, 250, 500 and 1000 μg/ml for picolinic acid and 0, 1, 10, 50, 100 and 500 μg/ml for fusaric acid. Culture medium was removed from confluent Vero cells in a 96-well plate by pump. The cells were then washed once with 200 μl of PBS. 200 μl culture medium containing varying concentrations of either picolinic acid or fusaric acid was added to each well. The cells were then incubated with […] at 37° C. for two days. At the end of incubation, the medium was removed and the cells washed with PBS. 200 μl of 0.01% neutral red in PBS was subsequently added to each well and incubated at 37° C. for 30 minutes The dye was then removed and the cells washed twice with 200 μl PBS per well. The dye was extracted by addition of 200 μl of 50% ethanol/1% glacial acetic acid in PBS to each well and incubated at room temperature for 15 minutes with gentle shaking at 120-150 rpm. The absorbance at 550 nm was read on an enzyme-linked immunosorbent assay (ELISA) reader. The toxicity profiles of picolinic acid and fusaric acid on Vero cells analyzed from optical absorbance readings are shown in Table 2.

Vero cells = experiment: cytotoxicity by neutral red dye uptake assay; assay type: cell-based
Experimental: as §8

Nc1nc2c(ncn2COCCO)c(=O)[nH]1 [Acyclovir, 2-amino-1,9-dihydro-9-[(2-hydroxyethoxy)metyl]-6H-purin-6-one]
HSV-2 (% of control) (HSV-2; acyclovir 6.1 μM, fusaric acid 0 μg/ml): 42.9 % of control
HSV-1 (% of control) (HSV-1; acyclovir 1.75 μM, fusaric acid 0 μg/ml): 62.9 % of control
efficacy against herpes labialis and herpes genitalis (in words) (herpes labialis; topical formulation): not effective

CCCCc1ccc(C(=O)O)nc1 [Fusaric acid]
effect on HSV-2 (in words) (HSV-2; 10 μg/ml fusaric acid alone): no effect
EC90 (HSV-2; Human alphaherpesvirus 2, Vero, read-out: EC90-100 (effective concentration giving 90-100% plaque reduction)): ~30 µg/mL
HSV-2 plaque count (% of control) (HSV-2; fusaric acid 1 μg/ml): 103 % of control
HSV-2 plaque count (% of control) (HSV-2; fusaric acid 10 μg/ml): 101 % of control
HSV-2 plaque count (% of control) (HSV-2; fusaric acid 30 μg/ml): 0 % of control
HSV-2 plaque count (% of control) (HSV-2; fusaric acid 60 μg/ml): 0 % of control
cell death observed under microscope (HSV-2; fusaric acid 60 μg/ml): + (˜20% cell death observed under microscope)
HSV-2 plaque count (% of control) (HSV-2; fusaric acid 100 μg/ml): 0 % of control
cell death observed under microscope (HSV-2; fusaric acid 100 μg/ml): ++ (˜50% cell death observed under microscope)
effect on HSV-1 (in words) (HSV-1; 10 μg/ml fusaric acid alone): no effect
EC90 (HSV-1; Human alphaherpesvirus 1, Vero, read-out: EC90-100 (effective concentration giving 90-100% plaque reduction)): ~30 µg/mL
HSV-1 plaque count (% of control) (HSV-1; fusaric acid 1 μg/ml): 101 % of control
HSV-1 plaque count (% of control) (HSV-1; fusaric acid 10 μg/ml): 105 % of control
HSV-1 plaque count (% of control) (HSV-1; fusaric acid 30 μg/ml): 0 % of control
HSV-1 plaque count (% of control) (HSV-1; fusaric acid 60 μg/ml): 0 % of control
cell death observed under microscope (HSV-1; fusaric acid 60 μg/ml): + (˜20% cell death observed under microscope)
HSV-1 plaque count (% of control) (HSV-1; fusaric acid 100 μg/ml): 0 % of control
cell death observed under microscope (HSV-1; fusaric acid 100 μg/ml): ++ (˜50% cell death observed under microscope)
CC50 at 2 days ([1]; Vero cells, read-out: cytotoxic concentration giving 50% of cell death (CC50)): ~100 µg/mL (≈ 0.558 mM)
Toxicity (% of control) (Vero cells; 1 μg/ml, Vero cells, two days): 101 % of control
Toxicity (% of control) (Vero cells; 10 μg/ml, Vero cells, two days): 76 % of control
Toxicity (% of control) (Vero cells; 50 μg/ml, Vero cells, two days): 55 % of control
Toxicity (% of control) (Vero cells; 100 μg/ml, Vero cells, two days): 49 % of control
Toxicity (% of control) (Vero cells; 500 μg/ml, Vero cells, two days): 16 % of control

O=C(O)c1ccccn1 [Picolinic acid, reference compound]
CC50 at 2 days [1]: ~800 µg/mL (≈ 6.5 mM)
Toxicity (% of control) (Vero cells; African green monkey, 2 days, 10 μg/ml): 105 % of control
Toxicity (% of control) (Vero cells; African green monkey, 2 days, 100 μg/ml): 95 % of control
Toxicity (% of control) (Vero cells; African green monkey, 2 days, 250 μg/ml): 70 % of control
Toxicity (% of control) (Vero cells; African green monkey, 2 days, 500 μg/ml): 57 % of control
Toxicity (% of control) (Vero cells; African green monkey, 2 days, 1000 μg/ml): 45 % of control

Nc1nc2c(ncn2CCC(CO)CO)c(=O)[nH]1 [denavir]
reduction of the median duration of the illness (herpes labialis; herpes labialis, typically lasting about 6 to 7 days): 6 h
